Results published in PubChem BioAssay AID2060486 (Molecular Pharmacology Branch, DTP, NCI, 2025).

Test system: IGROV1 complex spheroids (HUVEC, MSC), viability % test/control
Assay: Anticancer human tumor IGROV1 cell line growth inhibition [GQUAD];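 further: spheroids exposed to compounds for 7 days before readout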
Details: for IC50: curve of first compound; for viability, T/C: stronger effect = lower value
Text: DNA G-quadruplex Stabilizer Agents in Combinations in Complex Spheroids
A high-throughput screen of multi-cell type tumor spheroids was designed to identify active combinations of DNA G-quadruplex stabilizer agents and targeted small molecules. Complex spheroids include a stromal component modeled by human endothelial cells (HUVEC) and fibroblasts modeled by human mesenchymal stem cells (MSCs). The concentration ranges selected for each drug and investigational agent were based upon clinically achievable concentrations if the clinical Cmax of the agent was known.
Compounds. The drugs and investigational agents: pidnarulex (CX-5461; NSC782164), APTO-253 (NSC789042), BRACO-19 (NSC847499), peposertib (NSC802822), ceralasertib (NSC780249), elimusertib (NSC800525), camonsertib (NSC841442), AZD-1390 (NSC803789), olaparib (NSC753686), talazoparib (NSC767125), ART-558 (NSC835418), sotorasib (NSC818433), MRTX-1133 (NSC836407), SN-38 (NSC673596), topotecan (NSC609699), etoposide (NSC141540), doxorubicin (NSC123127), gemcitabine (NSC613327), 5-fluorouracil (NSC19893), paclitaxel (NSC125973), vemurafenib (NSC761431), panobinostat (NSC761190), R-306465 (JNJ-16241199; NSC773264), adavosertib (NSC754352), TP-3654 (NSC805149), carboplatin (NSC241240), KSQ-4279 (NSC840948), and staurosporine (NSC755774) were obtained from the National Cancer Institute (NCI) Developmental Therapeutics Program Chemical Repository (34). The FDA-approved anticancer drug set is available from the NCI Developmental Therapeutics Program. […] The stock solutions were prepared in dimethyl sulfoxide (DMSO, Sigma-Aldrich, St. Louis, MO, cat. D2650) at 800-fold the tested concentration and stored at -70 degrees C prior to their use. All drugs and investigational agents were tested over a range starting from a high concentration at or near the clinical Cmax and decreasing in half-log increments. If the clinical Cmax for an agent had not been determined, the highest concentration tested was 10 microM.
2.3 Cell Culture. All cells were maintained in an incubator at 37 degrees C and 5% CO2 with 95% humidity. The PDC lines were cultured according to standard operating procedures established by the NCI PDMR. All PDCs were thawed and cultured in Matrigel-coated flasks prepared with a working solution of 1X Ham's F-12 nutrient mix, without supplementation (Invitrogen, cat. 11765054), 100 U/mL penicillin-streptomycin (Invitrogen, cat. 15140122), and 2.5% Matrigel (Corning Inc., cat. 354248) for the first three passages. The 857933-349-R-J2-PDC line was cultured in 6C/Colon 1B media, which includes advanced DMEM/F-12 (Thermo Fisher Scientific, cat. 12634028), 10 mM HEPES (Thermo Fisher Scientific, cat. 15630080), 1X GlutaMAX supplement (Thermo Fisher Scientific, cat. 35050061), 0.1 mg/mL primocin (InvivoGen, cat. ant-pm-2), 10% defined fetal bovine serum, heat inactivated (HyClone Laboratories Inc., cat. SH30070.03HI), 50% L-WRN conditioned media (ATCC, cat. CRL-3276), 1.25 mM N-Acetyl-L-cysteine (Sigma-Aldrich, cat. A9165), 10 mM nicotinamide (Sigma-Aldrich, cat. N0636), 1X B-27 supplement (Thermo Fisher Scientific, cat. 17504044), 1X N-2 supplement (Thermo Fisher Scientific, cat. 17502048), 10 microM Y-27632 dihydrochloride (Tocris Bioscience, cat. 1254), and 50 ng/mL human EGF recombinant protein (Thermo Fisher Scientific, cat. PHG0311). The 485176-168-R4-J1-PDC line was cultured in Panc media, which includes all 6C/Colon 1B media components plus 100 ng/mL human FGF-10 (Thermo Fisher Scientific, cat. 100-26), 500 nM SB-431542 (Selleckchem, cat. S1067), and gastrin (Tocris, cat. 3006).
[…]

[1] = second compound 0.0316 µM, first compound 0.0316 µM
[2] = second compound 0.0316 µM, first compound 0.1 µM
[3] = second compound 0.0316 µM, first compound 0.316 µM
[4] = second compound 0.0316 µM, first compound 1 µM
[5] = second compound 0.0316 µM, first compound 3.16 µM
[6] = second compound 0.0316 µM, first compound 10 µM
[7] = second compound 0.1 µM, first compound 0.0316 µM
[8] = second compound 0.1 µM, first compound 0.1 µM
[9] = second compound 0.1 µM, first compound 0.316 µM
[10] = second compound 0.1 µM, first compound 1 µM
[11] = second compound 0.1 µM, first compound 3.16 µM
[12] = second compound 0.1 µM, first compound 10 µM
[13] = second compound 0.316 µM, first compound 0.0316 µM
[14] = second compound 0.316 µM, first compound 0.1 µM
[15] = second compound 0.316 µM, first compound 0.316 µM
[16] = second compound 0.316 µM, first compound 1 µM
[17] = second compound 0.316 µM, first compound 3.16 µM
[18] = second compound 0.316 µM, first compound 10 µM
[19] = second compound 1 µM, first compound 0.0316 µM
[20] = second compound 1 µM, first compound 0.1 µM
[21] = second compound 1 µM, first compound 0.316 µM
[22] = second compound 1 µM, first compound 1 µM
[23] = second compound 1 µM, first compound 3.16 µM
[24] = second compound 1 µM, first compound 10 µM
[25] = second compound 3.16 µM, first compound 0.0316 µM
[26] = second compound 3.16 µM, first compound 0.1 µM
[27] = second compound 3.16 µM, first compound 0.316 µM
[28] = second compound 3.16 µM, first compound 1 µM
[29] = second compound 3.16 µM, first compound 3.16 µM
[30] = second compound 3.16 µM, first compound 10 µM
[31] = second compound 10 µM, first compound 0.0316 µM
[32] = second compound 10 µM, first compound 0.1 µM
[33] = second compound 10 µM, first compound 0.316 µM
[34] = second compound 10 µM, first compound 1 µM
[35] = second compound 10 µM, first compound 3.16 µM
[36] = second compound 10 µM, first compound 10 µM

In the case of `C#Cc1c(F)ccc2cc(O)cc(-c3ncc4c(N5CC6CCC(C5)N6)nc(OCC56CCCN5CC(F)C6)nc4c3F)c12` (centres undefined) + Cc1cnc(CNC(=O)c2c(=O)c3ccc(N4CCCN(C)CC4)nc3n3c2sc2ccccc23)cn1, the IC50 (second compound 0.0316 µM) is reported as 2820 nM, the IC50 (second compound 0.1 µM) is reported as less than 31.6 nM and the IC50 (second compound 0.316 µM) is reported as less than 31.6 nM. The IC50 (second compound 1 µM) was less than 31.6 nM, the IC50 (second compound 3.16 µM) was less than 31.6 nM and the IC50 (second compound 10 µM) was less than 31.6 nM. It also gave a viability, T/C [1] of 70%, a viability, T/C [2] of 67.6% and a viability, T/C [3] of 58.5%. For the same molecule, the viability, T/C [4] was 56.4%, the viability, T/C [5] was 47.6% and the viability, T/C [6] was 45.3%. It also gave a viability, T/C [7] of 40.6%, a viability, T/C [8] of 41.9% and a viability, T/C [9] of 36.5%. The viability, T/C [10] was 27.3%, the viability, T/C [11] was 35.8% and the viability, T/C [12] was 17.3%. The viability, T/C [13] was 21.4%, the viability, T/C [14] was 21.5% and the viability, T/C [15] was 20.7%. It also gave a viability, T/C [16] of 24.7%, a viability, T/C [17] of 18.3% and a viability, T/C [18] of 15.1%. It also gave a viability, T/C [19] of 16.7%, a viability, T/C [20] of 16.4% and a viability, T/C [21] of 11.1%. The viability, T/C [22] was 13.3%, the viability, T/C [23] was 14.5% and the viability, T/C [24] was 7.91%. For the same molecule, the viability, T/C [25] was 9.65%, the viability, T/C [26] was 9.22% and the viability, T/C [27] was 8.28%. It also gave a viability, T/C [28] of 10.1%, a viability, T/C [29] of 10% and a viability, T/C [30] of 6.58%. The viability, T/C [31] was 7.28%, the viability, T/C [32] was 7.39% and the viability, T/C [33] was 9.03%. For the same molecule, the viability, T/C [34] was 8.87%, the viability, T/C [35] was 8.84% and the viability, T/C [36] was 7.64%.

`C=CCn1c(=O)c2cnc(Nc3ccc(N4CCN(C)CC4)cc3)nc2n1-c1cccc(C(C)(C)O)n1` + Cc1cnc(CNC(=O)c2c(=O)c3ccc(N4CCCN(C)CC4)nc3n3c2sc2ccccc23)cn1 was tested, and the IC50 (second compound 0.0316 µM) was 45.1 nM, the IC50 (second compound 0.1 µM) was less than 31.6 nM and the IC50 (second compound 0.316 µM) was less than 31.6 nM. The IC50 (second compound 1 µM) was less than 31.6 nM, the IC50 (second compound 3.16 µM) was less than 31.6 nM and the IC50 (second compound 10 µM) was less than 31.6 nM. The viability, T/C [1] was 59%, the viability, T/C [2] was 29.8% and the viability, T/C [3] was 5.19%. For the same molecule, the viability, T/C [4] was 2.29%, the viability, T/C [5] was 2.42% and the viability, T/C [6] was 1.97%. The viability, T/C [7] was 23.5%, the viability, T/C [8] was 18% and the viability, T/C [9] was 4.3%. The viability, T/C [10] was 2.46%, the viability, T/C [11] was 2.38% and the viability, T/C [12] was 2.57%. It also gave a viability, T/C [13] of 16.9%, a viability, T/C [14] of 9.27% and a viability, T/C [15] of 4.48%. It also gave a viability, T/C [16] of 2.42%, a viability, T/C [17] of 2.95% and a viability, T/C [18] of 2.48%. It also gave a viability, T/C [19] of 9.95%, a viability, T/C [20] of 9.65% and a viability, T/C [21] of 3.88%. It also gave a viability, T/C [22] of 3.14%, a viability, T/C [23] of 3.18% and a viability, T/C [24] of 3.24%. For the same molecule, the viability, T/C [25] was 11.6%, the viability, T/C [26] was 7.96% and the viability, T/C [27] was 4.12%. The viability, T/C [28] was 3.52%, the viability, T/C [29] was 3.96% and the viability, T/C [30] was 3.47%. The viability, T/C [31] was 7.24%, the viability, T/C [32] was 6.29% and the viability, T/C [33] was 4.68%. For the same molecule, the viability, T/C [34] was 3.1%, the viability, T/C [35] was 4.62% and the viability, T/C [36] was 2.93%.
